Measurements published in patent US12077503B2, “Substituted cyclic amides and their use as herbicides” (FMC CORPORATION, priority 2015, dated 2024).

Columns and labels:
Experiment in all cases: Test C postemergence
Format in all cases: in vivo
Settings in all cases: scale 0 to 100, 0 no effect, 100 complete control
[1] = tested on: Galium (catchweed bedstraw, Galium aparine)
In short: (§1)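 Herbicidal effect, applied preemergence to sown seeds or postemergence to 1- to 4-leaf plants, was scored visually 13 to 15 d after application, 0 to 100 versus controls.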

[2] = tested on: barnyardgrass (Echinochloa crus-galli)
In short: as §1

[3] = tested on: blackgrass (Alopecurus myosuroides)
In short: as §1

[4] = tested on: chickweed (common chickweed, Stellaria media)
In short: as §1

[5] = tested on: corn (Zea mays)
In short: as §1

[6] = tested on: crabgrass, large (large crabgrass, Digitaria sanguinalis)
In short: as §1

[7] = tested on: foxtail, giant (giant foxtail, Setaria faberii)
In short: as §1

[8] = tested on: johnsongrass (Sorghum halepense)
In short: as §1

[9] = tested on: lambsquarters (Chenopodium album)
In short: as §1

[10] = tested on: morningglory (Ipomoea coccinea)
In short: as §1

[11] = tested on: nutsedge, yellow (yellow nutsedge, Cyperus esculentus)
In short: as §1

[12] = tested on: oat, wild (wild oat, Avena fatua)
In short: as §1

[13] = tested on: oilseed rape (Brassica napus)
In short: as §1

[14] = tested on: pigweed (Amaranthus retroflexus)
In short: as §1

[15] = tested on: ragweed (common ragweed, Ambrosia elatior)
In short: as §1

[16] = tested on: ryegrass, Italian (Italian ryegrass, Lolium multiflorum)
In short: as §1

[17] = tested on: soybean (Glycine max)
In short: as §1

[18] = tested on: velvetleaf (Abutilon theophrasti)
In short: as §1

[19] = tested on: waterhemp (common waterhemp, Amaranthus rudis)
In short: as §1

CN1CC(c2ccc(F)c(F)c2)C(C(=O)Nc2ccccc2S(C)(=O)=O)C1=O (stereo not shown) [Compound 640]
Plant response rating, Galium ([1]; 31 g ai/ha): 50
Plant response rating, Galium ([1]; 62 g ai/ha): 55
Plant response rating, Galium ([1]; 125 g ai/ha): 60
Plant response rating, Galium ([1]; 250 g ai/ha): 65
Plant response rating, Barnyardgrass ([2]; 31 g ai/ha): 0
Plant response rating, Barnyardgrass ([2]; 62 g ai/ha): 0
Plant response rating, Barnyardgrass ([2]; 125 g ai/ha): 10
Plant response rating, Barnyardgrass ([2]; 250 g ai/ha): 10
Plant response rating, Blackgrass ([3]; 31 g ai/ha): 0
Plant response rating, Blackgrass ([3]; 62 g ai/ha): 0
Plant response rating, Blackgrass ([3]; 125 g ai/ha): 0
Plant response rating, Blackgrass ([3]; 250 g ai/ha): 0
Plant response rating, Chickweed ([4]; 31 g ai/ha): 25
Plant response rating, Chickweed ([4]; 62 g ai/ha): 0
Plant response rating, Chickweed ([4]; 125 g ai/ha): 60
Plant response rating, Chickweed ([4]; 250 g ai/ha): 35
Plant response rating, Corn ([5]; 31 g ai/ha): 0
Plant response rating, Corn ([5]; 62 g ai/ha): 0
Plant response rating, Corn ([5]; 125 g ai/ha): 0
Plant response rating, Corn ([5]; 250 g ai/ha): 0
Plant response rating, Crabgrass, Large ([6]; 31 g ai/ha): 0
Plant response rating, Crabgrass, Large ([6]; 62 g ai/ha): 0
Plant response rating, Crabgrass, Large ([6]; 125 g ai/ha): 10
Plant response rating, Crabgrass, Large ([6]; 250 g ai/ha): 35
Plant response rating, Foxtail, Giant ([7]; 31 g ai/ha): 0
Plant response rating, Foxtail, Giant ([7]; 62 g ai/ha): 0
Plant response rating, Foxtail, Giant ([7]; 125 g ai/ha): 10
Plant response rating, Foxtail, Giant ([7]; 250 g ai/ha): 65
Plant response rating, Johnsongrass ([8]; 31 g ai/ha): 0
Plant response rating, Johnsongrass ([8]; 62 g ai/ha): 0
Plant response rating, Johnsongrass ([8]; 125 g ai/ha): 0
Plant response rating, Johnsongrass ([8]; 250 g ai/ha): 0
Plant response rating, Lambsquarters ([9]; 31 g ai/ha): 30
Plant response rating, Lambsquarters ([9]; 62 g ai/ha): 20
Plant response rating, Lambsquarters ([9]; 125 g ai/ha): 70
Plant response rating, Lambsquarters ([9]; 250 g ai/ha): 40
Plant response rating, Morningglory ([10]; 31 g ai/ha): 35
Plant response rating, Morningglory ([10]; 62 g ai/ha): 40
Plant response rating, Morningglory ([10]; 125 g ai/ha): 55
Plant response rating, Morningglory ([10]; 250 g ai/ha): 40
Plant response rating, Nutsedge, Yellow ([11]; 31 g ai/ha): 0
Plant response rating, Nutsedge, Yellow ([11]; 62 g ai/ha): 0
Plant response rating, Nutsedge, Yellow ([11]; 125 g ai/ha): 0
Plant response rating, Nutsedge, Yellow ([11]; 250 g ai/ha): 10
Plant response rating, Oat, Wild ([12]; 31 g ai/ha): 0
Plant response rating, Oat, Wild ([12]; 62 g ai/ha): 0
Plant response rating, Oat, Wild ([12]; 125 g ai/ha): 0
Plant response rating, Oat, Wild ([12]; 250 g ai/ha): 5
Plant response rating, Oilseed Rape ([13]; 31 g ai/ha): 20
Plant response rating, Oilseed Rape ([13]; 62 g ai/ha): 15
Plant response rating, Oilseed Rape ([13]; 125 g ai/ha): 50
Plant response rating, Oilseed Rape ([13]; 250 g ai/ha): 60
Plant response rating, Pigweed ([14]; 31 g ai/ha): 10
Plant response rating, Pigweed ([14]; 62 g ai/ha): 35
Plant response rating, Pigweed ([14]; 125 g ai/ha): 35
Plant response rating, Pigweed ([14]; 250 g ai/ha): 55
Plant response rating, Ragweed ([15]; 31 g ai/ha): 0
Plant response rating, Ragweed ([15]; 62 g ai/ha): 25
Plant response rating, Ragweed ([15]; 125 g ai/ha): 30
Plant response rating, Ragweed ([15]; 250 g ai/ha): 55
Plant response rating, Ryegrass, Italian ([16]; 31 g ai/ha): 0
Plant response rating, Ryegrass, Italian ([16]; 62 g ai/ha): 0
Plant response rating, Ryegrass, Italian ([16]; 125 g ai/ha): 0
Plant response rating, Ryegrass, Italian ([16]; 250 g ai/ha): 5
Plant response rating, Soybean ([17]; 31 g ai/ha): 65
Plant response rating, Soybean ([17]; 62 g ai/ha): 10
Plant response rating, Soybean ([17]; 125 g ai/ha): 10
Plant response rating, Soybean ([17]; 250 g ai/ha): 5
Plant response rating, Velvetleaf ([18]; 31 g ai/ha): 5
Plant response rating, Velvetleaf ([18]; 62 g ai/ha): 70
Plant response rating, Velvetleaf ([18]; 125 g ai/ha): 25
Plant response rating, Velvetleaf ([18]; 250 g ai/ha): 30
Plant response rating, Waterhemp ([19]; 31 g ai/ha): 5
Plant response rating, Waterhemp ([19]; 62 g ai/ha): 20
Plant response rating, Waterhemp ([19]; 125 g ai/ha): 10
Plant response rating, Waterhemp ([19]; 250 g ai/ha): 30
